Values of other authors as cited in US20070218128A1, “Manufacturing of Quick Release Pharmaceutical Compositions of Water Insoluble Drugs and Pharmaceutical Compositions Obtained By the Process of the Invention” (priority 2004, published 2007).
Like-named read-outs stand apart in the source and are kept apart here.

Tests used:
[1] = approximate values; for pKa1 / pKa2 / pKa3: Table 1 amino acids; for pKa: Table 1 alkaline substances, refer to the pKa of the acid
[2] = for solubility in water and in 0.1 N HCl: water and 0.1 N HCl

Q: For N=C(N)NCCC[C@H](N)C(=O)O [Arginine], which pH (100 g/L H2O) is on record?
A: The pH was “pH ≈ 11.4”.

Q: What about the pKa1 [1] of the same compound?
A: The pKa1 was “pKa1: 2.2”.

Q: What about the pKa2 [1] of the same compound?
A: Its pKa2 is “pKa2: 9.1”.

Q: What about the pKa3 [1] of the same compound?
A: Its pKa3 is “pKa3: 13.2”.

Q: With COc1ccc2c3c1O[C@H]1[C@@H](O)C=C[C@H]4[C@@H](C2)N(C)CC[C@@]341 [Codeine, reference compound] as the compound, how does the “pH in saturated solution” value (saturated solution) read?
A: The value was “solution ≈ 9.8)”.

Q: For O=C([O-])[O-].[Na+].[Na+] [Di-sodium carbonate], which pKa [1] is on record?
A: The pKa was 10.3.

Q: With N[C@@H](Cc1c[nH]cn1)C(=O)O [Histidine] as the compound, how does the pH (10 g/L H2O) read?
A: The pH was “pH ≈ 7.7”.

Q: And the pKa1 [1]?
A: Its pKa1 is “pKa1: 1.8”.

Q: And the pKa2 [1]?
A: Its pKa2 is “pKa2: 6.0”.

Q: What about the pKa3 [1] of the same compound?
A: The pKa3 was “pKa3: 9.0”.

Q: For NN [Hydrazine], which pKa [1] is on record?
A: Its pKa is 8.

Q: Which pKa1 [1] does the source give for NCCCC[C@H](N)C(=O)O [Lysine] here?
A: Its pKa1 is “pKa1: 2.2”.

Q: What about the pKa2 [1] of the same compound?
A: The pKa2 was “pKa2: 8.9”.

Q: Which pKa [1] does the source give for O=C([O-])/C=C/C(=O)[O-].[Na+].[Na+] [Sodium fumerate] here?
A: The pKa was 4.4.

Q: For O=C([O-])/C=C\C(=O)[O-].[Na+].[Na+] [Sodium maleate], which pKa [1] is on record?
A: Its pKa is 6.2.

Q: With CC(=O)Oc1ccccc1C(=O)O [acetylsalicylic acid] as the compound, how does the “solubility in water and in 0.1 N HCl” value ([2]; room temperature) read?
A: Its value is “practically insoluble”.

Q: With COc1ccc2c(c1)c(CC(=O)O)c(C)n2C(=O)c1ccc(Cl)cc1 [indometacin] as the compound, how does the “solubility in water and in 0.1 N HCl” value ([2]; room temperature) read?
A: Its value is “practically insoluble”.

Q: With CN1C(C(=O)Nc2ccccn2)=C(O)c2sc(Cl)cc2S1(=O)=O [lornoxicam] as the compound, how does the “solubility in 0.1 N HCl” value ([2]; 0.1 N HCl) read?
A: The value was “less than 0.1 % w/v”.

Q: What about the “solubility at a pH of 0.1 N HCl” value ([2]; 0.1 N HCl, room temperature) of the same compound?
A: Its value is “less than 1 mg/100 ml”.
